From patent US8785199B2, “Culture medium and method for inducing differentiation into adipocytes” (Fujirebio, Inc, priority 2009, dated 2014)

These molecules were tested on human bone marrow-derived mesenchymal stem cells (assay: Differentiation induction of human bone marrow-derived mesenchymal stem cells into adipocytes (oil red O staining, adiponectin ELISA, real-time PCR)). Conditions: not given.
Format: cell-based
Description: A serum-free control culture medium (Comparative Example 1) was produced by adding 5 μM of LPA, 1 mM of vitamin C, 100 μM of biotin, and 41.5 nM of progesterone to Dulbecco's modified Eagle's medium (DMEM) containing HEPES (concentration of 25 mM).
To HEPES-containing DMEM, at the final concentrations, 500 μM of isobutylmethylxanthine (IBMX), 1 μM of dexamethasone, 1 μM of insulin, and 1 μM of rosiglitazone were added to produce an adipocyte differentiation inducing culture medium.
To the above adipocyte differentiation inducing culture medium, 5 μM of LPA, 1 mM of vitamin C, 100 μM of biotin, and 41.5 nM of progesterone were added to produce a serum-free differentiation inducing culture medium according to the present invention (hereinafter referred to as serum-free differentiation culture medium: Example 1).
To each of HEPES-containing DMEM and the adipocyte differentiation inducing culture medium, 10% of fetal bovine serum (FBS) was added to produce a conventional culture medium (Comparative Example 2) and a conventional differentiation culture medium (Comparative Example 3).
Human bone marrow-derived mesenchymal stem cells (strain name: normal human mesenchymal stem cells (Cryo hMSC purchased from LONZA) were seeded in a culture container with a 48-hole culture plate at a cell density of 30,000 cells/cm^2. These culture media were replaced with respective fresh ones every three to four days to culture the cells at 37 degrees C. and 5% CO2 for 7 to 21 days, thereby inducing differentiation into adipocytes.
The adipocytes were confirmed by oil red 0 staining of lipid droplets accumulated in the cells. Additionally, the oil red O-stained cells were extracted with isopropanol to measure the quantity of lipid accumulated in the cells using an absorption spectrophotometer (wavelength of 492 nm). Then, the quantities of adiponectin secreted from the cells in the three days: Day 4 to Day 7, Day 11 to Day 14, and Day 18 to Day 21 of differentiation induction were confirmed using an adiponectin ELISA kit (Fujirebio Inc). Furthermore, the mRNA expressions of PPAR-gamma and adiponectin were confirmed by real-time PCR. The forward and reverse primers for PPRA-gamma used were […] (SEQ ID NO:1) and tcgcctttgctttggtcag (SEQ ID NO:2), respectively; the forward and reverse primers for adiponectin used were […] (SEQ ID NO:3) and […] (SEQ ID NO:4), respectively; and the forward and reverse primers for GAPDH used were […] (SEQ ID NO:5) and […] (SEQ ID NO:6), respectively.
As in Example 1, at the final concentrations, 500 μM of IBMX, 1 μM of dexamethasone, 1 μM of insulin, and 1 μM of rosiglitazone were added to HEPES-containing DMEM to produce an adipocyte differentiation inducing culture medium. To the adipocyte differentiation inducing basal medium, 5 μM of LPA, 1 mM of vitamin C, […], and 41.5 nM of progesterone were added to produce a serum-free differentiation culture medium according to the present invention (Example 2). On the other hand, for comparison, there were also prepared a culture medium without LPA alone (Comparative Example 4), a culture medium without vitamin C alone (Comparative Example 5), a culture medium without biotin alone (Comparative Example 6), and a culture medium without progesterone alone (Comparative Example 7).
To DMEM not containing HEPES, at the final concentrations, 500 μM of IBMX, 1 μM of dexamethasone, 1 μM of insulin, and 1 μM of rosiglitazone were added to produce an adipocyte differentiation inducing culture medium 2. To the adipocyte differentiation inducing basal medium 2, 5 μM of LPA, 1 mM of vitamin C, 100 μM of biotin, and 41.5 nM of progesterone were added to produce a serum-free differentiation culture medium 2 (Comparative Example 8).
As in Example 1, human bone marrow-derived mesenchymal stem cells were seeded in the wells of a 48-hole culture plate at the cell density of 30,000 cells/cm^2. […]
In the case of `CC(=O)[C@H]1CC[C@H]2[C@@H]3CCC4=CC(=O)CC[C@]4(C)[C@H]3CC[C@]12C` [progesterone], the “effect on the quantity of lipid droplets in adipocytes when added to the culture medium” value is reported as “increasing the quantity of lipid droplets in adipocytes”.

Same assay, conditions: component left out of the serum-free differentiation culture medium; 21 days; FIG. 4
“1-oleoyl lysophosphatidic acid sodium [LPA]” was tested, and the “necessity of the component for inducing differentiation into adipocytes” value was “necessary”.
For `O=S(=O)(O)CCN1CCN(CCO)CC1` [HEPES, 2-[4-(2-hydroxyethyl)-1-piperazinyl]ethanesulfonic acid], the “necessity of the component for inducing differentiation into adipocytes” value was “necessary”.
With `O=C(O)CCCC[C@@H]1SC[C@@H]2NC(=O)N[C@@H]21` [biotin] the “necessity of the component for inducing differentiation into adipocytes” value was “necessary”.
For `CC(=O)[C@H]1CC[C@H]2[C@@H]3CCC4=CC(=O)CC[C@]4(C)[C@H]3CC[C@]12C` [progesterone], the “necessity of the component for inducing differentiation into adipocytes” value was “not essential”.
`O=C1O[C@H]([C@@H](O)CO)C(O)=C1O` [vitamin C] was tested, and the “necessity of the component for inducing differentiation into adipocytes” value was “necessary”.
